Data set [1] deals with porcine smooth muscle cell cultures. As to the kind of experiment: Thymidine incorporation (proliferation) in porcine smooth muscle cell cultures. It is filed as cell-based. To be noted: for IC50: Sus scrofa, amount of incorporated thymidine, concentrations 0.003-156 micromolar, FIGS. 20A-B, read-out: IC50 (concentration at which 50% of the cells are prevented from proliferating). How it is done:
In order to assess the effect of therapeutic capable agents of the present invention on cell cultures, samples of 5 sets of therapeutic capable agents, as listed below, in varying concentrations were prepared and added to different groups of porcine smooth muscle cell cultures according to standard procedures. Set A, B, C, D, and E corresponded to therapeutic capable agent sets: Mycophenolic acid & Dexamethasone; Mycophenolic acid & Triptolide; Wortmannin and Methotrexate; Triptolide; Mycophenolate Mofetil; respectively. The amount of incorporated thymidine for the different samples of varying concentrations (0.003, 0.031, 0.31, 1.6, and 3.1 micromolar) was measured.
In another group of therapeutic capable agents, the amount of incorporated thymidine for samples of varying concentrations (0.003, 0.031, 0.31, 1.6, 3.1, 31, and 156 micromolar) was measured.

Data set [2] can be described thus: Half life of mycophenolic acid bound to BSA (MPA-BSA), assayed by liquid chromatography. The format is in vitro ADME. The text has this:
The MPA-BSA has an increases half time (as measured by assaying methods such as liquid chromotography) as compared to mycophenolic acid alone and as shown in the table below: […]

Consider `C[C@@H]1C[C@H]2[C@@H]3CCC4=CC(=O)C=C[C@]4(C)[C@@]3(F)[C@@H](O)C[C@]2(C)[C@@]1(O)C(=O)CO` [Dexamethasone], for which the Cell death result in the data set with cell cultures is “did not lead to significant cell death”. For `CN(Cc1cnc2nc(N)nc(N)c2n1)c1ccc(C(=O)N[C@@H](CCC(=O)O)C(=O)O)cc1` [Methotrexate], in the data set with cell cultures, the Cell death result is recorded as “did not lead to significant cell death”.

Take `C[C@H]1C[C@@H]2[C@H]([C@@H](O)C[C@@]3(C)[C@H]2CC[C@]3(O)C(=O)CO)[C@@]2(C)C=CC(=O)C=C12` [Methylprednisolone, methylprednisolone]: the IC50 in data set [1] was found to be 1 µM. In the case of `COc1c(C)c2c(c(O)c1C/C=C(\C)CCC(=O)OCCN1CCOCC1)C(=O)OC2` [Mycophenolate Mofetil], in data set [1] (porcine smooth muscle cell cultures, 0.003-3.1 micromolar, FIG. 19E), the “Effectiveness on cell proliferation (incorporated thymidine)” value is given as “may not be as effective in the absence of a bio-condition”. Consider `COc1c(C)c2c(c(O)c1C/C=C(\C)CCC(=O)O)C(=O)OC2` [Mycophenolic acid, mycophenolic acid], for which the Cell death entry in the data set with cell cultures was “did not lead to significant cell death”. Moreover, the IC50 in data set [1] was 1 µM. On to `CC(C)[C@]12O[C@H]1[C@@H]1O[C@]13[C@]1(O[C@H]1C[C@H]1C4=C(CC[C@@]13C)C(=O)OC4)[C@@H]2O` [Triptolide], for which, in the data set on cell cultures, the Cell death result is reported as “did not lead to significant cell death”. Take “MPA-BSA: mycophenolic acid (MPA) bound to Bovine Serum Albumin disposed adjacent the rate-controlling element, forming a complex”: the “Half Life (T)” value in data set [2] (Blood or Tissue BSA Concentration 1%) worked out at 1.27 h; in data set [2] (Blood or Tissue BSA Concentration 2%), 2.02 h; in data set [2] (Blood or Tissue BSA Concentration 4%) it was 6.07 h; in data set [2] (Blood or Tissue BSA Concentration 6%), 32.07 h. Besides, in data set [2] (metabolism to glucuronide derivative), the “Stability of the complex compared to mycophenolic acid alone” value is recorded as “more stable than mycophenolic acid alone”.

The values are drawn from patent publication US7077859B2, “Apparatus and methods for variably controlled substance delivery from implanted prostheses” (Avantec Vascular Corporation, priority 2000, dated 2006).
